Measured values reported in article PMC4604124, “In Vitro Characterization of the Pharmacological Properties of the Anti-Cancer Chelator, Bp4eT, and Its Phase I Metabolites” (PLoS ONE, 2015).
Several values for one entry are separate records, joined by “and”; a condition that tells them apart may be missing. Identical values can stand only once.

Legend:
[1] = parameters: method as in PMID 24254882; settings: cited from earlier work
LC3-II = assay: Western blot and densitometry of LC3-I/II (autophagy); assay type: cell-based, human; settings: for densitometry WB, relative to NT = 1: single blot
From the text: Established protocols were used to prepare cell lysates and perform immunoblot analysis. Primary antibodies used include: rabbit LC3 (Cat. #: MBPM036; 1:2,000) from Abacus (Brisbane, Australia) and mouse β-actin (Cat. #: A1978, 1:10,000) from Sigma-Aldrich. The following secondary antibodies were utilized: horseradish peroxidase (HRP)-conjugated anti-rabbit (Cat. #: A6154, […]) and anti-mouse (Cat. #: A4416, 1:10,000) antibodies from Sigma-Aldrich. To ensure equal loading of proteins, membranes were probed for β-actin.

MCF-7 cells [2] = assay: Mitochondrial morphology, MitoTracker Green FM; assay type: cell-based, human; settings: 10 or 100 nM, 72 h
Method: (§1) Markers used to assess autophagy/apoptosis/necrosis in MCF-7 cells and changes of lysosomal and mitochondrial morphology were observed using an Eclipse Ti inverted epifluorescence microscope (Nikon, Tokyo, Japan), that was equipped with a cooled digital camera Zyla 5.5 sCMOS (Andor Technology, Belfast, UK), and NIS-Elements C 4.1 software (Laboratory Imaging, Prague, Czech Republic). The MCF-7 cells were seeded in 6-well plates with cover slips on the bottom at a density of 150,000 cells/well and incubated as described above in the presence or absence of 10 or 100 nM Bp4eT.
To determine the effect of Bp4eT on mitochondrial morphology, the cells were incubated with MitoTracker® Green FM (0.25 μM; λex = 490 nm; λem = 516 nm; Molecular Probes) for 10 min/37°C. The cells were then washed with fresh medium and the images captured using the microscope described above.

MCF-7 cells [3] = assay: Epifluorescence microscopy, triple staining MDC / annexin V-FITC / propidium iodide; assay type: cell-based, human; settings: Bp4eT 10 or 100 nM 72 h, rapamycin 1 nM 30 min
Method: as §1
To assess the mechanism of cellular death after incubation with Bp4eT, triple staining with monodansyl cadaverine (MDC; 50 μM; λex = 390 nm; λem = 455 nm; Sigma-Aldrich), annexin V-FITC (5 μL/mL; λex = 495 nm; λem = 519 nm; Invitrogen, Carlsbad, CA, USA), and propidium iodide (5 μg/mL; λex = 560 nm; λem = 630 nm) was used. MDC is a marker of autophagosomes and lysosomes and results in blue fluorescence. As a positive control for autophagy, MCF-7 cells were incubated with 1 nM rapamycin (Sigma-Aldrich) for 30 min/37°C, which is an established inducer of autophagy. Annexin V has high affinity to phosphatidylserine, which is translocated to the surface of both early- and late-stage apoptotic cells. […]

[4] = Supplementary Fig 2, 5uM (5M [sic] for Bp4eT)
[5] = Supplementary Fig 2, Baf+, 10nM
[6] = Supplementary Fig 2, Baf+, 100nM
[7] = Supplementary Fig 2, Baf+, 5uM (5M [sic] for Bp4eT)

| Compound | Highest concentration in plasma ([1]; rat plasma, after 300 min post i.v. administration of Bp4eT) [µM] | Exposure relative to that of the parent compound ([1]; rats, intravenous administration of Bp4eT) [%] | LC3II expression with Baf A1 relative to Baf A1 and control (LC3-II; 24 h/37°C, MCF-7, agent at all concentrations (10 nM– 5 μM), Baf A1 100 nM) | LC3-II levels upon co-incubation with Baf A1, compared to Baf A1 alone (LC3-II; 72 h/37°C, MCF-7, Baf A1 100 nM, Bp4eT 10 and 100 nM, Dp44mT 100 nM) | densitometry WB, relative to NT = 1, Average (LC3-II; Fig 7E, 10nM) | densitometry WB, relative to NT = 1 (LC3-II; Fig 7E, 10nM) | densitometry WB, relative to NT = 1, Average (LC3-II; Fig 7E, 100nM) | densitometry WB, relative to NT = 1, Average (LC3-II; Supplementary Fig 2, 10nM) | densitometry WB, relative to NT = 1, Average (LC3-II; Supplementary Fig 2, 100nM) | densitometry WB, relative to NT = 1, Average (LC3-II; [4]) | densitometry WB, relative to NT = 1 (LC3-II; [4]) | densitometry WB, relative to NT = 1, Average (LC3-II; [5]) | densitometry WB, relative to NT = 1 (LC3-II; [5]) | densitometry WB, relative to NT = 1, Average (LC3-II; [6]) | densitometry WB, relative to NT = 1 (LC3-II; [6]) | densitometry WB, relative to NT = 1, Average (LC3-II; [7]) | densitometry WB, relative to NT = 1 (LC3-II; [7]) | LC3-II levels compared to the control (LC3-II; agent alone, 72 h/37°C, MCF-7, Bp4eT 10 and 100 nM, Dp44mT 100 nM, Baf A1 100 nM) | Mitochondrial morphology (MCF-7 cells [2]) | Staining for autophagy/apoptosis/necrosis (MDC, annexin V-FITC, propidium iodide) (MCF-7 cells [3]) |
| --- | --- | --- | --- | --- | --- | --- | --- | --- | --- | --- | --- | --- | --- | --- | --- | --- | --- | --- | --- | --- |
| CCN=CNN=C(c1ccccc1)c1ccccn1 [Bp4eA, N ^3-ethyl-N ^1-[phenyl(pyridin-2-yl)methylene]formamidrazone] | < 1 | 20 |  |  |  |  |  |  |  |  |  |  |  |  |  |  |  |  |  |  |
| CCNC(=S)NN=C(c1ccccc1)c1ccccn1 [Bp4eT, 2-benzoylpyridine 4-ethyl-3-thiosemicarbazone] |  |  | did not lead to a significant (p > 0.05) increase | significant (p < 0.001–0.05) suppression | 6.247 | 4.981 and 5.294 and 8.4664 | 6.003 | 1.7596 | 0.8507 | 0.7357 | 0.9358 and 0.7729 and 0.4982 | 143.432 | 159.536 and 131.647 and 139.114 | 74.7567 | 63.4737 and 60.9216 and 99.8746 | 159.207 | 188.04 and 116.854 and 172.727 | slight, but significant (p < 0.05) increase | more swollen and enlarged | dose-dependent increase in the number of green annexin V-stained cell membranes or bodies |
